Assay: Human HepG2 cell viability assay in 384 well format
Assay type: toxicity, cell-based
Parameters: dose 125 nL, time 70.5 hour; cytotoxicity at 70.5 h: concentration not given beside the values
Details: HepG2 cells, read-out: Inhibition

First: Cc1nn(CCO)c(C)c1CNC1CCOc2ccccc21 (stereo not given)
Second: Cc1cccc(CNC2CCCc3c2cnn3C)c1 (stereo not given)
The cytotoxicity at 70.5 h of the first is higher: -2.7% for the first, -6.91% for the second.

Going from Cc1oncc1C(=O)NCc1cc(=O)n2c(n1)CN(C(C)C)CCC2 to Cc1cc(-c2cnc(N3CCSCC3)nc2C(C)C)on1, the cytotoxicity at 70.5 h rises from -4.07% to -0.852%.

Going from COc1cc2c(cc1OC)S(=O)(=O)N(Cc1cnn(C)c1)C2=O to COc1cc(OC)cc(-c2cccc3c2OC(CN)C3)c1 (stereo not given), the cytotoxicity at 70.5 h rises from -22.9% to 24.7%.

Compared with O=C(O)c1cccc(N2C[C@H](NC(=O)C3CCOCC3)[C@@H](C3CC3)C2)n1, CC(=O)N1[C@H](Cn2cncn2)C[C@@H]2CN(C(=O)NC3CC3)CC[C@@H]21 is higher in cytotoxicity at 70.5 h: -4.78% for the first, 5.13% for the second.

First: COc1c(C)cnc(CN(C)C(=O)c2cccnc2N(C)C)c1C
Second: Cc1ncncc1-c1ccnc(N(C)C)n1
The cytotoxicity at 70.5 h of the first is higher: -0.657% for the first, -1.27% for the second.

Going from Cc1ccc(N2CCC3(CCC(=O)N3Cc3ccncc3)CC2)nn1 to Cc1ccc(N2CCC3(CN(CCO)CCC3(F)F)C2)nn1 (stereo not given), the cytotoxicity at 70.5 h falls from 0.778% to -6.24%.

First: CC(C)N(CC(N)=O)CC(=O)NCCc1c(F)cccc1F
Second: O=C(Cc1cccc(F)c1)NCCNCc1ccc2c(c1)CCO2
The cytotoxicity at 70.5 h of the first is lower: -1.87% for the first, 6.87% for the second.

Compared with COCCNC(=O)c1ccoc1CN1c2ccccc2CC1C (stereo not given), CCn1cnnc1CNC(=O)N1CCN(c2ccccc2OC)CC1 is lower in cytotoxicity at 70.5 h: -6.26% for the first, -9.83% for the second.

First: Cc1ccn(CCC(=O)N2CCCC2c2nnc(-c3scnc3C)o2)n1 (stereo not given)
Second: CCOc1cc(C(=O)N2CCCC(n3nc(C)nc3C)C2)ccn1 (stereo not given)
The cytotoxicity at 70.5 h of the first is higher: 11.6% for the first, -3.74% for the second.

Going from Cc1ccc(N2CC[C@H]3OCC[C@@]3(C(=O)NC(C)C)C2)nn1 to Cc1nn(C)c(C)c1C1CCCN1CC(=O)Nc1cc(C(C)C)no1 (stereo not given), the cytotoxicity at 70.5 h falls from 1.98% to -3.36%.

Compared with CCc1[nH]ncc1C(=O)N1CCCC(n2ccnc2C)C1 (stereo not given), Cc1nc2cc(C(=O)N3CCCC(n4ccnc4)C3)ccc2n1C (stereo not given) is higher in cytotoxicity at 70.5 h: -7.72% for the first, -2.44% for the second.

Going from FC(F)(F)c1ccc(CNC[C@H]2COCc3nc4cccnc4n32)cc1 to O=C(NCCNc1ncccn1)N1CCCC1c1ccncc1 (stereo not given), the cytotoxicity at 70.5 h rises from -3.68% to 1.65%.

First: COCC(O)CN1CC(C)(C)CN(C(=O)CCc2ccccc2)CC1=O (stereo not given)
Second: CN(C)C(=O)COC[C@]12COC[C@H]1CN(CCc1ccccc1)C2
The cytotoxicity at 70.5 h of the first is higher: 0.943% for the first, -1.91% for the second.

Compared with Cc1n[nH]c(C)c1-c1cnc(CC2CCCN(S(C)(=O)=O)C2)cn1 (stereo not given), Cc1cc(C)nc(Nc2cccc(C3CCCN(S(C)(=O)=O)C3)n2)n1 (stereo not given) is higher in cytotoxicity at 70.5 h: -10.2% for the first, 46.8% for the second.

Compared with O=C(NCCSC1CCCC1)c1cc(C2CC2)on1, CN1CCCC1c1cncc(C(=O)NCC2CC2)n1 (stereo not given) is lower in cytotoxicity at 70.5 h: -0.97% for the first, -6.82% for the second.

Compared with CC(C)CN1C[C@H]2CCN(Cc3cccnc3)CC[C@H]2S1(=O)=O, CCc1ccc(CN2CCC(=O)N(CC3CC3)C(C(C)C)C2)nc1 (stereo not given) is lower in cytotoxicity at 70.5 h: -10.9% for the first, -11.4% for the second.

First: CCS(=O)(=O)CC(=O)NC(c1ccc(F)cc1)C1CCCC1 (stereo not given)
Second: CCCC(C(=O)NC1CCN(S(C)(=O)=O)CC1)c1ccccc1 (stereo not given)
The cytotoxicity at 70.5 h of the first is higher: 1.5% for the first, -4.97% for the second.

Going from N[C@H]1CCCN(C(=O)c2cnc(COc3ccccc3)nc2O)C1 to O=C(c1cc2ccccc2[nH]1)N1CCC(Nc2cccnn2)CC1, the cytotoxicity at 70.5 h rises from -9.44% to -6.88%.

First: CC(=O)N1CCN(C(=O)Nc2ccccc2Cl)[C@H]2CS(=O)(=O)C[C@H]21
Second: CC(O)C(=O)N1CCC(c2[nH]ncc2-c2ccccc2)CC1 (stereo not given)
The cytotoxicity at 70.5 h of the first is lower: -16% for the first, 20.2% for the second.

First: CCN1CCCN(C(=O)c2ccc(NC(=O)CC(C)C)c(C)c2)CC1
Second: Cc1ccc(C(=O)N2CCSCC2)cc1NC(=O)Cn1cncn1
The cytotoxicity at 70.5 h of the first is lower: -12.9% for the first, -6.81% for the second.

Compared with Cc1nc(COC[C@@]23CCC[C@@H]2CN(CC2CCOCC2)C3)cs1, CCCc1nc(CN2CCCC2Cn2cncn2)cs1 (stereo not given) is higher in cytotoxicity at 70.5 h: -9.04% for the first, 17.1% for the second.

Going from O=C1CCCN1CCN1CC=C(c2cnn(C3CCS(=O)(=O)C3)c2)CC1 (stereo not given) to OC1CCCOC12CCN(CCCOc1ccccc1F)CC2 (stereo not given), the cytotoxicity at 70.5 h falls from -10.3% to -10.9%.

Compared with CS(=O)(=O)CCN1CCC(Nc2c(Cl)cccc2C#N)CC1, COc1cccc(S(=O)(=O)CCN2CCC3(CC2)OCCO3)c1 is higher in cytotoxicity at 70.5 h: -94% for the first, -18.5% for the second.

Compared with c1cnnc(-c2noc(CCN3CCCO3)n2)c1, CC1CCCCN1C(=O)COCc1nc(-c2ccncc2)no1 (stereo not given) is higher in cytotoxicity at 70.5 h: -10.9% for the first, 4.94% for the second.

Compared with CC(C)COC(=O)N1CCCN(C(C)c2nnc(CC(C)C)o2)CC1 (stereo not given), CCc1ccc(C(=O)N2CCN(c3nc(C)cc(OC)n3)CC2)o1 is higher in cytotoxicity at 70.5 h: -3.09% for the first, 4.76% for the second.

Compared with CC(C)c1cc(C(=O)N2CCc3ccccc3C2C(=O)O)nn1C (stereo not given), Cc1nc2c(c(C)c1CC(=O)NC(C)c1ccccc1)c(=O)[nH]n2C (stereo not given) is lower in cytotoxicity at 70.5 h: -1.42% for the first, -2.23% for the second.

Going from Cc1cc(C)nc(CN(C)C(=O)C(c2cccnc2)N2CCCC2)c1 (stereo not given) to CC(=O)N1CCCC1c1nc(CN(C)C(=O)C(C)C)cc(N(C)C)n1 (stereo not given), the cytotoxicity at 70.5 h rises from -9.19% to -4.11%.

First: Cn1ncc2c1NC(=O)CC2c1c(F)cccc1Cl (stereo not given)
Second: CN1CC2(CCN(C(=O)c3cccnc3)CC2)c2cccc(F)c21
The cytotoxicity at 70.5 h of the first is lower: -5.11% for the first, -0.505% for the second.

Going from COCC1CN(c2ccc3c(Cl)ccnc3c2F)CCO1 (stereo not given) to CN(C)Cc1cnc(C2CCN(C(=O)c3cc(F)cc(F)c3)C2)[nH]1 (stereo not given), the cytotoxicity at 70.5 h falls from 20.2% to -2.53%.

First: Cn1nnc2c1CCN(Cc1ccccc1)C2COCC1CC1 (stereo not given)
Second: Cn1nnc2c1C(COCC1CC1)CN(C(=O)Cc1ccccn1)C2 (stereo not given)
The cytotoxicity at 70.5 h of the first is lower: -3.64% for the first, -2.19% for the second.

First: Fc1cnc(N2CC[C@@H]3O[C@@H](COCc4cccnc4)CC[C@@H]32)nc1
Second: Cn1ccnc1CN1CCCCC1c1nc(-c2ccccc2)no1 (stereo not given)
The cytotoxicity at 70.5 h of the first is higher: -6.15% for the first, -10.6% for the second.

First: CCOC(=O)CN1CCC2(CC1)CC(NC(=O)c1ccccn1)CO2 (stereo not given)
Second: Cc1cccnc1NC(=O)C1(n2cnnn2)CCCCC1
The cytotoxicity at 70.5 h of the first is higher: -1.03% for the first, -30.1% for the second.

First: Cc1ncc(CNC2CCc3nc(C(C)C)nn3C2)s1 (stereo not given)
Second: Cc1noc(OCc2csc(C)n2)n1
The cytotoxicity at 70.5 h of the first is higher: 1.67% for the first, -3.72% for the second.

First: CCC(C)(CC(=O)O)NC(=O)Cc1ccccc1Br (stereo not given)
Second: Cc1cccc(NC(=O)[C@@H]2CCCN2CC(=O)Nc2ccccc2)n1
The cytotoxicity at 70.5 h of the first is higher: -4.24% for the first, -6.38% for the second.

Compared with CS(=O)(=O)N1CCOCC2(CN(Cc3nccs3)CCO2)C1 (stereo not given), CC(=O)N1CCN(C[C@H]2CC[C@@H](Cc3ccc4c(c3)OCO4)O2)CC1 is lower in cytotoxicity at 70.5 h: 15.5% for the first, -1.65% for the second.

First: CCOCc1cnc2n1CCN(C(=O)c1ccoc1C)C2C (stereo not given)
Second: CC1CCN(C(=O)c2cnn3c(-c4ccco4)ccnc23)CC1
The cytotoxicity at 70.5 h of the first is higher: 9.87% for the first, -8.7% for the second.

First: CC(C)=CCC/C(C)=C/CN1CCN(C)C2(CCNC(=O)CC2)C1 (stereo not given)
Second: Cn1ccnc1CN1C[C@@H](CN2CCC(CO)CC2)[C@@H](CO)C1
The cytotoxicity at 70.5 h of the first is lower: -9.38% for the first, -7.99% for the second.

First: Cc1noc(CC2CCN(C(=O)C(c3ccccc3C)N(C)C)CC2)n1 (stereo not given)
Second: CCc1noc(C)c1C(=O)N1CCCC(n2nc(C)nc2C)C1 (stereo not given)
The cytotoxicity at 70.5 h of the first is lower: -12.1% for the first, -2.69% for the second.

First: CCNc1ncc(C(=O)N(C)CCc2nc3cc(Cl)ccc3[nH]2)cn1
Second: Cn1cccc1-c1cc(C(=O)N2CC(c3cccnc3)C2)[nH]n1
The cytotoxicity at 70.5 h of the first is lower: -16.7% for the first, -5.83% for the second.

First: Cc1cscc1C(=O)NC1CC(=O)N(C(C)C)C1=O (stereo not given)
Second: O=C(CSc1ccc(F)cc1)NS(=O)(=O)c1ccc2c(c1)OCCO2
The cytotoxicity at 70.5 h of the first is lower: -4.89% for the first, 6.32% for the second.

From ChEMBL document CHEMBL3507680, “University of Dundee, Gates Library screen for HepG2 cell viability”
